The values below come from ChEMBL document CHEMBL2046397, “Design and synthesis of 5-(substituted benzylidene)thiazolidine-2,4-dione derivatives as novel tyrosinase inhibitors” (Eur J Med Chem, 2012).

Active and inactive are the calls of the source. The calls are words filed in the database; no cut-off is given here.

In series [1] the target is T1, Tyrosinase (Agaricus bisporus) (UniProt O42713).
T1 sequence (whole entry): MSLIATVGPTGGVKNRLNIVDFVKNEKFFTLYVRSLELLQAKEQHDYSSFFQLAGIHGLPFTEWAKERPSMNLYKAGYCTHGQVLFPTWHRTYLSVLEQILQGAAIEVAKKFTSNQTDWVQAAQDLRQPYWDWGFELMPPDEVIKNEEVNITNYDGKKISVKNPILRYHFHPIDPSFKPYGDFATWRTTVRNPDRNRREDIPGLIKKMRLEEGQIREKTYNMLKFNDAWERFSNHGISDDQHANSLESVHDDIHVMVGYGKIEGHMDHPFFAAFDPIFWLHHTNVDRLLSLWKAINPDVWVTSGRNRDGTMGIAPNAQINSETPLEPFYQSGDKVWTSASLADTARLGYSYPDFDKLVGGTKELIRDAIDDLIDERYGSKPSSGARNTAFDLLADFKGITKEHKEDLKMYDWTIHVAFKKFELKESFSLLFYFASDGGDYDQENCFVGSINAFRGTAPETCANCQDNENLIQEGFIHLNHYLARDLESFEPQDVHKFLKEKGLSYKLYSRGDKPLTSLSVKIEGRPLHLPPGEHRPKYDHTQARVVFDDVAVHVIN
Description: Competitive inhibition of mushroom tyrosinase using L-tyrosine as substrate at 1.25 uM by Line-Weaver-Burk plot analysis.

In series [2] the test system is B16. Description: Antimelanogenic activity in mouse B16 cells assessed as inhibition of alpha-MSH-induced melanin formation after 24 hrs by spectrophotometric assay. The format is functional, cell-based.
Series [3] addresses T1, Tyrosinase (Agaricus bisporus). Description: Competitive inhibition of mushroom tyrosinase using L-tyrosine as substrate at 20 uM by Line-Weaver-Burk plot analysis.
For series [4] the target is unchanged. Description: Competitive inhibition of mushroom tyrosinase using L-tyrosine as substrate assessed increase in Km L-tyrosine by Line-Weaver-Burk plot analysis.
Series [5] has as its target T2, Tyrosinase (Mus musculus) (UniProt P11344).
T2 sequence (whole entry): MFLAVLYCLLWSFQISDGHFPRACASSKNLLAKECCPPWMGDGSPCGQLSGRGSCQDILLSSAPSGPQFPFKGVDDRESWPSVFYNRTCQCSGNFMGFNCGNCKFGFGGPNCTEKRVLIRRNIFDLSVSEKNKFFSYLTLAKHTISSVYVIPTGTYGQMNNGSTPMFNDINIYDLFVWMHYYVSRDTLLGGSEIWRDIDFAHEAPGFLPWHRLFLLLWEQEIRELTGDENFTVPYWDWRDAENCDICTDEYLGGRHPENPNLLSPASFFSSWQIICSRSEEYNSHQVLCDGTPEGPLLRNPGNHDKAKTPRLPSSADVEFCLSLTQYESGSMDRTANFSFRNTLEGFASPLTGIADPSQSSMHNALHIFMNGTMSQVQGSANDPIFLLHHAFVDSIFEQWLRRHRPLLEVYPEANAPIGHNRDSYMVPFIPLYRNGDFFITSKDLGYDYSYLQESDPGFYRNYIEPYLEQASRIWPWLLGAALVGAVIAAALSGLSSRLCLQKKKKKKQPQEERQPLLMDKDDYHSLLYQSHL
Description: Inhibition of MSHalpha-stimulated tyrosinase activity in mouse B16 cells using L-DOPA as substrate after 24 hrs by […]. The format is cell-based. In general terms: In an ELISA, binding on a coated surface is turned into a signal by an enzyme label.

The subject of series [6] is B16. Description: Cytotoxicity against mouse B16 cells at 0.1 to 10 uM after 8 hrs by MTT assay. As to conditions: b16, 8 h. The format is cell-based.
The target of the next series is T3, Tyrosinase (Agaricus bisporus, UniProt O42713).
T3 sequence (O42713 whole entry): T1 sequence (whole entry)
Description: Inhibition of mushroom tyrosinase activity using L-tyrosine as substrate after 30 mins by spectrophotometric analysis.

`O=C1NC(=O)/C(=C/c2ccc(O)cc2)S1`: the Kic is 3.74 ×10⁻⁷ M in series [1] and 0.84 µM in series [3]. Also, in the series with B16 [2], the inhibition result was “Dose-dependent effect”. Also, the inhibition result in series [4] and in series [5] was “Active” throughout. The Activity result with B16 [6] is reported as “Non-toxic”. Further, the IC50 (usually the concentration that gives 50% inhibition) at Tyrosinase amounted to 13.4 µM.

In the case of `COc1ccc(/C=C2\SC(=O)NC2=O)cc1O`, the Kic in series [1] came to 4.13 ×10⁻⁷ M; in series [3], 1.38 µM. The inhibition entry in the series with B16 [2] was “Dose-dependent effect”. Moreover, the inhibition result in series [4] and in series [5] was “Active” throughout. For the same molecule, in the series with B16 [6], the Activity entry was “Non-toxic”. At Tyrosinase, this molecule gave a half-inhibitory concentration (IC50) of 9.87 µM.
